≈ marks a conversion by molar mass, not a printed value.
How the values were obtained:
Assay in all cases: in vitro antibacterial evaluation, MIC by broth dilution
Type in all cases: cell-based
Enterococcus sp. = details: broth dilution, 18 hours at 35° C.
Method in brief: (§1)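 Step 1: dilute antibiotic across 64-0.06 μg/mL in Muller-Hinton II […]. Step 2: inoculate at 5×10^5 CFU/mL.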

Streptococcus sp. = details: broth dilution, 18 hours at 35° C.
Method in brief: as §1

Escherichia coli = details: 18 hours at 35° C.
Method in brief: as §1

Staphylococcus sp. = details: broth dilution, 18 hours at 35° C.
Method in brief: as §1

SMILES: CC(c1ccccc1)C1NC(=O)CNC(=O)C(CO)NC(=O)C(C(O)C2CNC(=N)N2C2OC(CO)C(O)C(O)C2O)NC(=O)C(C(O)C2CNC(=N)N2)NC(=O)C(Cc2ccc(OC3OC(CO)C(OC4OC5COC(C67CC8CC(CC(C8)C6)C7)OC5C(O)C4O)C(O)C3O)cc2)NC1=O (stereo not drawn) [Example 127]
- MIC Enterococcus avium (GC 4558) (Enterococcus sp.; Enterococcus avium (GC 4558)): 2 µg/mL (≈ 1.39 µM)
- MIC Enterococcus faecalis (ATCC 29212) (Enterococcus sp.; Enterococcus faecalis (ATCC 29212)): 2 µg/mL (≈ 1.39 µM)
- MIC Enterococcus faecalis (GC 2242) (Enterococcus sp.; Enterococcus faecalis (GC 2242)): 4 µg/mL (≈ 2.77 µM)
- MIC Enterococcus faecalis (GC 2691) (Enterococcus sp.; Enterococcus faecalis (GC 2691)): 4 µg/mL (≈ 2.77 µM)
- MIC Enterococcus faecalis (GC 3059) (Enterococcus sp.; Enterococcus faecalis (GC 3059)): 2 µg/mL (≈ 1.39 µM)
- MIC Enterococcus faecalis (GC 4552) (Enterococcus sp.; Enterococcus faecalis (GC 4552)): 4 µg/mL (≈ 2.77 µM)
- MIC Enterococcus faecalis (GC 4553) (Enterococcus sp.; Enterococcus faecalis (GC 4553)): 4 µg/mL (≈ 2.77 µM)
- MIC Enterococcus faecalis (GC 4554) (Enterococcus sp.; Enterococcus faecalis (GC 4554)): 4 µg/mL (≈ 2.77 µM)
- MIC Enterococcus faecalis (GC 6189) (Enterococcus sp.; Enterococcus faecalis (GC 6189)): 2 µg/mL (≈ 1.39 µM)
- MIC Enterococcus faecium (GC 2243) (Enterococcus sp.; Enterococcus faecium (GC 2243)): 4 µg/mL (≈ 2.77 µM)
- MIC Enterococcus faecium (GC 4556) (Enterococcus sp.; Enterococcus faecium (GC 4556)): 4 µg/mL (≈ 2.77 µM)
- MIC Enterococcus faecium (GC 4557) (Enterococcus sp.; Enterococcus faecium (GC 4557)): 4 µg/mL (≈ 2.77 µM)
- MIC Enterococcus faecalis (ATCC 29212) (Enterococcus sp.; strain ATCC 29212): 2 µg/mL (≈ 1.39 µM)
- MIC Enterococcus faecalis (GC 2242) (Enterococcus sp.; strain GC 2242): 4 µg/mL (≈ 2.77 µM)
- MIC Enterococcus faecium (GC 2243) (Enterococcus sp.; strain GC 2243): 4 µg/mL (≈ 2.77 µM)
- MIC Enterococcus faecalis (GC 2691) (Enterococcus sp.; strain GC 2691): 4 µg/mL (≈ 2.77 µM)
- MIC Enterococcus faecalis (GC 3059) (Enterococcus sp.; strain GC 3059): 2 µg/mL (≈ 1.39 µM)
- MIC Enterococcus faecalis (GC 4552) (Enterococcus sp.; strain GC 4552): 4 µg/mL (≈ 2.77 µM)
- MIC Enterococcus faecalis (GC 4553) (Enterococcus sp.; strain GC 4553): 4 µg/mL (≈ 2.77 µM)
- MIC Enterococcus faecalis (GC 4554) (Enterococcus sp.; strain GC 4554): 4 µg/mL (≈ 2.77 µM)
- MIC Enterococcus faecium (GC 4556) (Enterococcus sp.; strain GC 4556): 4 µg/mL (≈ 2.77 µM)
- MIC Enterococcus faecium (GC 4557) (Enterococcus sp.; strain GC 4557): 4 µg/mL (≈ 2.77 µM)
- MIC Enterococcus avium (GC 4558) (Enterococcus sp.; strain GC 4558): 2 µg/mL (≈ 1.39 µM)
- MIC Enterococcus faecalis (GC 6189) (Enterococcus sp.; strain GC 6189): 2 µg/mL (≈ 1.39 µM)
- MIC Streptococcus agalactiae (GC 4564) (Streptococcus sp.; Streptococcus agalactiae (GC 4564)): <0.12 µg/mL
- MIC Streptococcus pneumoniae (ATCC 6301) (Streptococcus sp.; Streptococcus pneumoniae (ATCC 6301)): <0.12 µg/mL
- MIC Streptococcus pneumoniae (GC 1894) (Streptococcus sp.; Streptococcus pneumoniae (GC 1894)): <0.12 µg/mL
- MIC Streptococcus pneumoniae (GC 4565) (Streptococcus sp.; Streptococcus pneumoniae (GC 4565)): <0.12 µg/mL
- MIC Streptococcus pyogenes (GC 4563) (Streptococcus sp.; Streptococcus pyogenes (GC 4563)): 0.25 µg/mL (≈ 0.173 µM)
- MIC Streptococcus pneumoniae (ATCC 6301) (Streptococcus sp.; strain ATCC 6301): <0.12 µg/mL
- MIC Streptococcus pneumoniae (GC 1894) (Streptococcus sp.; strain GC 1894): <0.12 µg/mL
- MIC Streptococcus pyogenes (GC 4563) (Streptococcus sp.; strain GC 4563): 0.25 µg/mL (≈ 0.173 µM)
- MIC Streptococcus agalactiae (GC 4564) (Streptococcus sp.; strain GC 4564): <0.12 µg/mL
- MIC Streptococcus pneumoniae (GC 4565) (Streptococcus sp.; strain GC 4565): <0.12 µg/mL
- MIC Escherichia coli (ATCC 25922) (Escherichia coli; strain ATCC 25922): 64 µg/mL (≈ 44.4 µM)
- MIC Escherichia coli (GC 4559) (Escherichia coli; strain GC 4559): 64 µg/mL (≈ 44.4 µM)
- MIC Escherichia coli (GC 4560) (Escherichia coli; strain GC 4560): 4 µg/mL (≈ 2.77 µM)
- MIC Staphylococcus aureus (ATCC 29213) (Staphylococcus sp.): 2 µg/mL (≈ 1.39 µM)
- MIC Staphylococcus aureus (GC 1131) (Staphylococcus sp.): 4 µg/mL (≈ 2.77 µM)
- MIC Staphylococcus aureus (GC 3051) (Staphylococcus sp.): 2 µg/mL (≈ 1.39 µM)
- MIC Staphylococcus aureus (GC 3053) (Staphylococcus sp.): 2 µg/mL (≈ 1.39 µM)
- MIC Staphylococcus aureus (GC 4541) (Staphylococcus sp.): 4 µg/mL (≈ 2.77 µM)
- MIC Staphylococcus aureus (GC 4542) (Staphylococcus sp.): 2 µg/mL (≈ 1.39 µM)
- MIC Staphylococcus aureus (GC 4544) (Staphylococcus sp.): 4 µg/mL (≈ 2.77 µM)
- MIC Staphylococcus aureus (GC 4545) (Staphylococcus sp.): 2 µg/mL (≈ 1.39 µM)
- MIC Staphylococcus aureus (GC 1131) (Staphylococcus sp.; inoculum 5×10^5 CFU/mL, strain GC 1131): 4 µg/mL (≈ 2.77 µM)
- MIC Staphylococcus aureus (ATCC 29213) (Staphylococcus sp.; strain ATCC 29213): 2 µg/mL (≈ 1.39 µM)
- MIC Staphylococcus aureus (GC 3051) (Staphylococcus sp.; strain GC 3051): 2 µg/mL (≈ 1.39 µM)
- MIC Staphylococcus aureus (GC 3053) (Staphylococcus sp.; strain GC 3053): 2 µg/mL (≈ 1.39 µM)
- MIC Staphylococcus aureus (GC 4541) (Staphylococcus sp.; strain GC 4541): 4 µg/mL (≈ 2.77 µM)
- MIC Staphylococcus aureus (GC 4542) (Staphylococcus sp.; strain GC 4542): 2 µg/mL (≈ 1.39 µM)
- MIC Staphylococcus aureus-SMITH (GC 4543) (Staphylococcus sp.; strain GC 4543): 2 µg/mL (≈ 1.39 µM)
- MIC Staphylococcus aureus (GC 4544) (Staphylococcus sp.; strain GC 4544): 4 µg/mL (≈ 2.77 µM)
- MIC Staphylococcus aureus (GC 4545) (Staphylococcus sp.; strain GC 4545): 2 µg/mL (≈ 1.39 µM)
- MIC Staphylococcus haemolyticus (GC 4546) (Staphylococcus sp.; strain GC 4546): 2 µg/mL (≈ 1.39 µM)
- MIC Coagulase Negative Staphylococcus (GC 4547) (Staphylococcus sp.; strain GC 4547): 4 µg/mL (≈ 2.77 µM)
- MIC Coagulase Negative Staphylococcus (GC 4548) (Staphylococcus sp.; strain GC 4548): 2 µg/mL (≈ 1.39 µM)
- MIC Coagulase Negative Staphylococcus (GC 4549) (Staphylococcus sp.; strain GC 4549): 1 µg/mL (≈ 0.694 µM)
- MIC Coagulase Negative Staphylococcus (GC 4551) (Staphylococcus sp.; strain GC 4551): 2 µg/mL (≈ 1.39 µM)
- MIC Staphylococcus aureus-SMITH (GC 4543) (Staphylococcus sp.; strain SMITH GC 4543): 2 µg/mL (≈ 1.39 µM)
